Measured values as given in article PMC11874007, “Switching Roles—Exploring Concentration-Dependent Agonistic versus Antagonistic Behavior of Integrin Ligands” (Journal of Medicinal Chemistry, 2025).

Tests used:
OV-MZ-6 cells = assay: Cell adhesion in the presence of ligand, OV-MZ-6 cells; assay type: cell-based; conditions: 1 μM, 48 h
Description: (§1) Figure 10 (A) Effect of integrin ligands on cancer cell migration. […] Microscopical measurements of wound gaps were taken directly after setting the wound scratch and then after 9, 24, 48, and 72 h, respectively. Wound scratch assays were repeated at least three times. The extent of wound gap closure [%]/cell coverage was calculated by a python script utilizing Canny’s Edge Detection algorithm as described under Materials and summarized in the corresponding histograms (see also Scheme S5 in the Supporting Information). (B) Adhesion of M21, OV-MZ-6, and HN cells in the presence of the respective integrin targeting ligand at low (1 nM) and high (1 μM) concentrations. […] Depicted are typical microscopical images of the respective cell monolayers.

[1] = tested on: FAK, p-FAK, p44/42erk-1/2 in αvβ6+ HN cells; assay: Western blot of FAK and p44/42erk-1/2 expression and activation, HN cells; assay type: cell-based
Description: Since agonistic ligand performance requires integrin activation and signaling, by Western blot analysis, we studied whether the different ligands alter the expression levels and activation states of FAK and p44/42^(erk-1/2). For this, the respective target integrin-expressing tumor cell types were incubated with the corresponding subtype-selective ligand at a concentration of 1 μM for 24 h (Figure 8). […] Signal intensities of FAK and p44/42^(erk-1/2) expression and activation (p-FAK and p-p44/42^(erk-1/2)) on Western blots were evaluated by densitometry. Data are depicted as GAPDH-normalized fluorescence signal intensities as n-fold, by setting values obtained for the respective untreated cells to “1”. […] MAPK p44/42^(erk-1/2) expression was approximately 2.2-fold augmented, p44/42^(erk-1/2) by approximately 2.5-fold. It also raised activation of p-FAK and p-p44/42^(erk-1/2) by approximately 2.2-fold and 3.1-fold, respectively, in α5β1+ OV-MZ-6 cells. […] Additionally, it raised FAK (approximately 1.7-fold) and p-p44/42^(erk-1/2) (approximately 2.4-fold) in α5β1+ OV-MZ-6 cells.
Figure 8 Effects of ligands on cellular expression and activation of integrin-related signaling molecules FAK and p44/42^(erk-1/2). […] Signal intensities for FAK and p-FAK, respectively, were evaluated by use of the Bio-Rad Imager Gel Doc XR+ and a ChemiDoc XRS+ Systems and the software Image Lab. Shown are typical representative Western blot images and the corresponding histograms depicting GAPDH-normalized signal intensities as n-fold by setting the values obtained for untreated cells to “1” (drawn as black line). For each cell line, cutouts of identical gels are depicted.
In order to capture early and transient changes in signaling activation following ligand treatment, we next reduced the observation periods to 5, 30, or 60 min and assessed FAK expression and activation. […] Depicted are typical Western blot images and the corresponding densitometrical evaluations of GAPDH-normalized signal intensities as n-fold, by setting that of the respective untreated cell type to “1” (Figure 9). […]

αvβ6+ HN cells = assay: Wound scratch cell migration assay, HN cells; assay type: cell-based; conditions: at either concentration (1 nM, 1 μM)
Description: As a biological readout for integrin signaling, we analyzed ligand effects on cell adhesion and migration by wound scratch assays (Figure 10A,B). […] Microscopical images were taken directly after wounding the cell monolayers and then after 9, 24, 48, and 72 h, respectively.
Figure 10 (A) Effect of integrin ligands on cancer cell migration. […] Microscopical measurements of wound gaps were taken directly after setting the wound scratch and then after 9, 24, 48, and 72 h, respectively. Wound scratch assays were repeated at least three times. The extent of wound gap closure [%]/cell coverage was calculated by a python script utilizing Canny’s Edge Detection algorithm as described under Materials and summarized in the corresponding histograms (see also Scheme S5 in the Supporting Information). (B) Adhesion of M21, OV-MZ-6, and HN cells in the presence of the respective integrin targeting ligand at low (1 nM) and high (1 μM) concentrations. […]
The assays were performed according to a modified protocol as previously published.[94] […] The smoothened images were then filtered by a Sobel kernel[98] and the magnitude and direction of the intensity gradient of the images calculated. […] The resulting images were then segmented and binarized by use of a grid filter and analyzed with respect to cell-covered area relative to the start image of each series.

HN cells = assay: Cell adhesion in the presence of ligand, HN cells; assay type: cell-based; conditions: both concentrations (1 nM, 1 μM), 48 h
Description: as §1

human αvβ3-integrin = biological target: T1, human αvβ3-integrin (Homo sapiens, UniProt P05106+P06756); conditions: previously published values; cited from earlier work
T1 construct: purchased R&D 3050-AV-050

M21 cells = assay: Cell adhesion in the presence of ligand, M21 cells; assay type: cell-based; conditions: 1 μM
Description: as §1

T1 sequence (P06756 31-992 limits assumed): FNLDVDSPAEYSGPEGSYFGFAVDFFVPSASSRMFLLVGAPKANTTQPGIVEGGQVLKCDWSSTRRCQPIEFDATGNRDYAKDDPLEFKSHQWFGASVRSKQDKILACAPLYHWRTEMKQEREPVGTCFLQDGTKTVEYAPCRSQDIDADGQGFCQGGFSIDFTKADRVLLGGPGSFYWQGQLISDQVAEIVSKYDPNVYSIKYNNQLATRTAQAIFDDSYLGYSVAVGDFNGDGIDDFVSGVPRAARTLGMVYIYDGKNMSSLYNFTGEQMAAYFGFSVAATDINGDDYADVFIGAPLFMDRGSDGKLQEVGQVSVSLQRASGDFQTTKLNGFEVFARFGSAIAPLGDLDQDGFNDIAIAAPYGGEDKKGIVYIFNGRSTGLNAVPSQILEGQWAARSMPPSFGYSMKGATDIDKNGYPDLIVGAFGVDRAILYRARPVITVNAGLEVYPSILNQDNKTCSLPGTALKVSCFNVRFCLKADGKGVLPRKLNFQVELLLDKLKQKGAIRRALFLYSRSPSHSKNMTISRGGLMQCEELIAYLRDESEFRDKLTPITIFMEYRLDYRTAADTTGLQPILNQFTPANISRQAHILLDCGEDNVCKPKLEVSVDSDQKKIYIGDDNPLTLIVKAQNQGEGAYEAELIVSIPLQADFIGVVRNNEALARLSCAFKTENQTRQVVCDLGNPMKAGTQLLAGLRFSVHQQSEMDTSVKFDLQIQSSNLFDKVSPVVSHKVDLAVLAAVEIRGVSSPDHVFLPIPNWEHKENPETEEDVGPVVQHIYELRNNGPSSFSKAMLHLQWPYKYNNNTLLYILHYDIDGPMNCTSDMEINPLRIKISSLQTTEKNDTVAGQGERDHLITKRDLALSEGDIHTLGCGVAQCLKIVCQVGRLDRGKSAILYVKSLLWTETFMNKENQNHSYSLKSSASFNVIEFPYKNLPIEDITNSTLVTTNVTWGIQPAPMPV
T1 sequence (P05106 27-718 limits assumed): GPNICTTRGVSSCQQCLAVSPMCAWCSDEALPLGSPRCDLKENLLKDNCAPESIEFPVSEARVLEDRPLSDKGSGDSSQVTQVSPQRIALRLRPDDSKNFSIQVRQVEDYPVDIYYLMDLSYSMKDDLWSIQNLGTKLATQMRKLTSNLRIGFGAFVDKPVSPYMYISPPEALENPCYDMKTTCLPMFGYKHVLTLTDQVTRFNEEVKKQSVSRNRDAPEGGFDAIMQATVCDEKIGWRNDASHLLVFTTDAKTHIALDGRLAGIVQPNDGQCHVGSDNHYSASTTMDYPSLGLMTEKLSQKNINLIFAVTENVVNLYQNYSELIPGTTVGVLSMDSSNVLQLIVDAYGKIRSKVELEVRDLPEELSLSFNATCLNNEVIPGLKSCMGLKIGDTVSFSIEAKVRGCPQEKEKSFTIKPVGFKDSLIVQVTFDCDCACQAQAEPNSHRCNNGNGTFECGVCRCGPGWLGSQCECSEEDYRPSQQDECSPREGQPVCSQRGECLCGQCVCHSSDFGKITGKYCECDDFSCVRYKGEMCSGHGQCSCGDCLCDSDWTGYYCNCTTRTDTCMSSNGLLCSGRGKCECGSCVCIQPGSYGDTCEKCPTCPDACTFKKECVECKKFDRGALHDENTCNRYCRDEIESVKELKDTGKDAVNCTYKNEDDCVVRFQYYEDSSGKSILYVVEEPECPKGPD

Compound: C#CCCC(=O)NCCCOc1cc(C)c(C(=O)N[C@@H](CNC(=O)CNC(=O)c2cccc(NC(=N)N)c2)C(=O)O)c(C)c1 [L5, (S)-2-(2,6-Dimethyl-4-(3-(pent-4-ynamido)propoxy)benzamido)-3-(2-(3-guanidinobenzamido)acetamido)propanoic Acid]
- Effect on cell adhesion / attachment (OV-MZ-6 cells): performed as inhibitors of cell attachment

Compound: c(FRGDLAFp(NMe)K) [L3]
- Modulation of signaling molecules (FAK, p44/42erk-1/2) ([1]; 1 μM, 24 h, in either cell type): not effective in modulating signaling molecules
- p-FAK, elevated levels within 30 min ([1]; HN cells, 1 nM): approximately five
- FAK expression versus untreated cells ([1]; HN cells, both concentrations (1 nM, 1 μM), within 60 min): slight increase
- Effect on cell migration (αvβ6+ HN cells): neither antagonistic nor agonistic effects
- Adhesive phenotype (HN cells): not changed
- IC50 (human αvβ3-integrin): > 1 µM

Compound: C#CCCC(=O)NCCCOc1ccc(C(=O)N[C@H](CC(=O)O)Cc2ccc(OCCCNc3cc(OC)ccn3)cc2)cc1 [L1, (S)-4-(4-(3-((4-Methoxypyridin-2-yl)amino)propoxy)phenyl)-3-(4-(3-(pent-4-ynamido)propoxy)benzamido)butanoic Acid]
- Effect on cell adhesion / attachment (M21 cells): performed as inhibitors of cell attachment
